What all share (format): in vivo
The test system of assay [1] is diamondback moth (Plutella xylostella). The assay can be described thus: Insecticidal effect on diamondback moth (Test Example 1). The following applies: diamondback moth; judged by the criterion of Test Example 1. In a few lines: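 Read-out was mortality from hatched-insect counts taken 6 days after the egg-bearing cabbage seedling was immersed, graded by set criteria. Seedlings were air-dried and kept at 25° C after treatment. Groups of 10 insects, in triplicate.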

The subject of assay [2] is common cutworm (Spodoptera Litura). The assay can be described thus: Insecticidal effect on common cutworm (Test Example 2). The following applies: 500 ppm, cabbage leaf dip, second-instar larvae of common cutworm, 8 days after inoculation, 25° C. In a few lines:
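Second-instar larvae placed in 9 cm Petri dishes with air-dried treated material, held at 25 °C. Dead and live insects counted 8 days after inoculation; mortality calculated and scored against a set criterion. Triplicate groups of 10 insects.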

Assay [3] has as its system rice leafroller (Cnaphalocrocis medinalis). The assay can be described thus: Insecticidal effect on rice leafroller (Test Example 3). The note with it: 500 ppm, rice lamina dip, third-instar larvae of rice leafroller, 4 days after inoculation, 25° C., humidity 70%. In a few lines:
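Groups of 10 third-instar larvae, in triplicate, are placed on air-dried lamina resting on wet filter paper. Incubation runs four days at 25° C with 70% humidity before survivors and dead are tallied.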

The values below come from patent US6362369B1, “Phthalic acid diamide derivatives fluorine-containing aniline compounds as starting material, agricultural and horticultural insecticides, and a method for application of the insecticides” (Nihon Nohyaku Co., Ltd., priority 1997, dated 2002).

SMILES strings stand for the structures.

With `CCC(C)NC(=O)c1c(Cl)cccc1C(=O)Nc1ccc(C(F)(F)C(F)(F)C(F)(F)F)cc1F` (stereo not drawn) [compound 1500], in assay [1], the “Insecticidal effect (Test Example 1), judged from mortality” value is listed as “A (100)”. Further, the “Insecticidal effect (Test Example 2), judged from mortality” value in assay [2] is listed as “A (100)”. For the same compound, the “Insecticidal effect (Test Example 3), judged from mortality” value in assay [3] is on record as “A (100)”.

In the case of `CCc1cc(C(F)(F)C(F)(F)F)ccc1NC(=O)c1cccc(Cl)c1C(=O)NC(C)CC` (stereo not drawn) [compound 1501], the “Insecticidal effect (Test Example 1), judged from mortality” value in assay [1] is recorded as “A (100)”. The “Insecticidal effect (Test Example 2), judged from mortality” value in assay [2] is “A (100)”. Also, the “Insecticidal effect (Test Example 3), judged from mortality” value in assay [3] is listed as “A (100)”.

`CCNC(=O)c1c(I)cccc1C(=O)Nc1ccc(C(F)(F)C(F)(F)F)cc1F` [compound 1502]: the “Insecticidal effect (Test Example 1), judged from mortality” value in assay [1] is recorded as “A (100)”. For the same compound, the “Insecticidal effect (Test Example 2), judged from mortality” value in assay [2] is listed as “A (100)”. For the same compound, the “Insecticidal effect (Test Example 3), judged from mortality” value in assay [3] was “A (100)”.

`CCNC(=O)c1c(I)cccc1C(=O)Nc1ccc(C(F)(F)C(F)(F)F)cc1Cl` [compound 1503]: in assay [1], the “Insecticidal effect (Test Example 1), judged from mortality” value was “A (100)”. The “Insecticidal effect (Test Example 2), judged from mortality” value in assay [2] was “C (89-80)”. Further, the “Insecticidal effect (Test Example 3), judged from mortality” value in assay [3] is on record as “A (100)”.

Take `CC(C)(C)NC(=O)c1c(I)cccc1C(=O)Nc1ccc(C(F)(F)C(F)(F)C(F)(F)F)cc1F` [compound 1504]: in assay [1], the “Insecticidal effect (Test Example 1), judged from mortality” value is given as “A (100)”. Also, the “Insecticidal effect (Test Example 2), judged from mortality” value in assay [2] was “A (100)”. In assay [3], the “Insecticidal effect (Test Example 3), judged from mortality” value is on record as “A (100)”.

Regarding `Cc1cc(C(F)(F)C(F)(F)F)ccc1NC(=O)c1cccc(F)c1C(=O)NC(C)(C)C` [compound 1505], the “Insecticidal effect (Test Example 1), judged from mortality” value in assay [1] is “A (100)”. The “Insecticidal effect (Test Example 2), judged from mortality” value in assay [2] was “A (100)”. Besides, in assay [3], the “Insecticidal effect (Test Example 3), judged from mortality” value was “A (100)”.

As for `Cc1cc(OC(F)F)ccc1NC(=O)c1cccc(F)c1C(=O)NC(C)(C)C` [compound 1506], the “Insecticidal effect (Test Example 1), judged from mortality” value in assay [1] is on record as “A (100)”. Moreover, in assay [2], the “Insecticidal effect (Test Example 2), judged from mortality” value is recorded as “A (100)”. The “Insecticidal effect (Test Example 3), judged from mortality” value in assay [3] is “A (100)”.

As to `CC(C)(C)NC(=O)c1c(F)cccc1C(=O)Nc1ccc(C(F)(F)C(F)(F)F)cc1F` [compound 1507], in assay [1], the “Insecticidal effect (Test Example 1), judged from mortality” value is listed as “A (100)”. In addition, in assay [2], the “Insecticidal effect (Test Example 2), judged from mortality” value was “A (100)”. In assay [3], the “Insecticidal effect (Test Example 3), judged from mortality” value is reported as “A (100)”.

Take `CC(C)(C)NC(=O)c1c(F)cccc1C(=O)Nc1ccc(C(F)(F)C(F)(F)F)cc1Cl` [compound 1508]: in assay [1], the “Insecticidal effect (Test Example 1), judged from mortality” value is “A (100)”. In addition, in assay [2], the “Insecticidal effect (Test Example 2), judged from mortality” value is “C (89-80)”. For the same compound, the “Insecticidal effect (Test Example 3), judged from mortality” value in assay [3] was “A (100)”.

With `CC(C)(C)NC(=O)c1c(F)cccc1C(=O)Nc1ccc(C(F)(F)C(F)(F)C(F)(F)F)cc1F` [compound 1509], in assay [1], the “Insecticidal effect (Test Example 1), judged from mortality” value is “A (100)”. The “Insecticidal effect (Test Example 2), judged from mortality” value in assay [2] is listed as “C (89-80)”. For the same compound, the “Insecticidal effect (Test Example 3), judged from mortality” value in assay [3] is “A (100)”.

With `CCCNC(=O)c1c(F)cccc1C(=O)Nc1ccc(C(F)(F)C(F)(F)F)cc1F` [compound 1512], the “Insecticidal effect (Test Example 1), judged from mortality” value in assay [1] is “A (100)”. In addition, the “Insecticidal effect (Test Example 2), judged from mortality” value in assay [2] is recorded as “A (100)”. The “Insecticidal effect (Test Example 3), judged from mortality” value in assay [3] was “A (100)”.

`CC(C)NC(=O)c1c(F)cccc1C(=O)Nc1ccc(C(F)(F)C(F)(F)F)cc1Cl` [compound 1516]: the “Insecticidal effect (Test Example 1), judged from mortality” value in assay [1] was “A (100)”. For the same compound, the “Insecticidal effect (Test Example 2), judged from mortality” value in assay [2] is listed as “A (100)”. Besides, the “Insecticidal effect (Test Example 3), judged from mortality” value in assay [3] is “A (100)”.

`Cc1cc(-c2ccc(C(F)(F)F)cc2)ccc1NC(=O)c1cccc(I)c1C(=O)NC(C)C` [compound 1522]: the “Insecticidal effect (Test Example 1), judged from mortality” value in assay [1] was “A (100)”. In assay [2], the “Insecticidal effect (Test Example 2), judged from mortality” value is given as “A (100)”. For the same compound, in assay [3], the “Insecticidal effect (Test Example 3), judged from mortality” value is given as “A (100)”.

Turning to `CCCNC(=O)c1c(I)cccc1C(=O)Nc1ccc(C(F)(F)C(F)(F)C(F)(F)F)cc1F` [compound 1524], in assay [1], the “Insecticidal effect (Test Example 1), judged from mortality” value was “A (100)”. Besides, in assay [2], the “Insecticidal effect (Test Example 2), judged from mortality” value is reported as “A (100)”. Also, the “Insecticidal effect (Test Example 3), judged from mortality” value in assay [3] is on record as “A (100)”.

Turning to `CCN(CC)C(=O)c1c(F)cccc1C(=O)Nc1ccc(C(F)(F)C(F)(F)F)cc1C` [compound 1525], the “Insecticidal effect (Test Example 1), judged from mortality” value in assay [1] is listed as “A (100)”. In assay [2], the “Insecticidal effect (Test Example 2), judged from mortality” value is on record as “A (100)”. Further, the “Insecticidal effect (Test Example 3), judged from mortality” value in assay [3] is “A (100)”.

Consider `CCN(CC)C(=O)c1c(F)cccc1C(=O)Nc1ccc(C(F)(C(F)(F)F)C(F)(F)F)cc1C` [compound 1526], for which the “Insecticidal effect (Test Example 1), judged from mortality” value in assay [1] is reported as “A (100)”. Besides, the “Insecticidal effect (Test Example 2), judged from mortality” value in assay [2] was “A (100)”. For the same compound, the “Insecticidal effect (Test Example 3), judged from mortality” value in assay [3] was “A (100)”.

For `CCN(CC)C(=O)c1c(F)cccc1C(=O)Nc1ccc(C(F)(F)C(F)(F)F)cc1Cl` [compound 1531], the “Insecticidal effect (Test Example 1), judged from mortality” value in assay [1] is listed as “A (100)”. In assay [2], the “Insecticidal effect (Test Example 2), judged from mortality” value is “A (100)”. The “Insecticidal effect (Test Example 3), judged from mortality” value in assay [3] was “A (100)”.

As to `CCN(CC)C(=O)c1c(I)cccc1C(=O)Nc1ccc(C(F)(C(F)(F)F)C(F)(F)F)cc1C` [compound 1532], in assay [1], the “Insecticidal effect (Test Example 1), judged from mortality” value was “A (100)”. Also, the “Insecticidal effect (Test Example 2), judged from mortality” value in assay [2] is reported as “A (100)”. In assay [3], the “Insecticidal effect (Test Example 3), judged from mortality” value was “A (100)”.

`CCN(CC)C(=O)c1c(I)cccc1C(=O)Nc1ccc(OC(F)(F)F)cc1C` [compound 1533]: the “Insecticidal effect (Test Example 1), judged from mortality” value in assay [1] is on record as “A (100)”. For the same compound, in assay [2], the “Insecticidal effect (Test Example 2), judged from mortality” value was “A (100)”. Moreover, the “Insecticidal effect (Test Example 3), judged from mortality” value in assay [3] is on record as “A (100)”.

`CCN(CC)C(=O)c1c(I)cccc1C(=O)Nc1ccc(OC(F)(F)F)cc1` [compound 1534]: the “Insecticidal effect (Test Example 1), judged from mortality” value in assay [1] is given as “A (100)”. In addition, the “Insecticidal effect (Test Example 2), judged from mortality” value in assay [2] was “A (100)”. The “Insecticidal effect (Test Example 3), judged from mortality” value in assay [3] is reported as “A (100)”.

As for `CCN(CC)C(=O)c1c(Cl)cccc1C(=O)Nc1ccc(C(F)(F)C(F)(F)F)cc1C` [compound 1535], in assay [1], the “Insecticidal effect (Test Example 1), judged from mortality” value is “A (100)”. For the same compound, in assay [2], the “Insecticidal effect (Test Example 2), judged from mortality” value was “A (100)”. The “Insecticidal effect (Test Example 3), judged from mortality” value in assay [3] was “A (100)”.

As to `CCN(CC)C(=O)c1c(Cl)cccc1C(=O)Nc1ccc(OC(F)(F)F)cc1C` [compound 1536], the “Insecticidal effect (Test Example 1), judged from mortality” value in assay [1] was “A (100)”. In addition, in assay [2], the “Insecticidal effect (Test Example 2), judged from mortality” value is listed as “A (100)”. For the same compound, the “Insecticidal effect (Test Example 3), judged from mortality” value in assay [3] is “A (100)”.

`CCN(CC)C(=O)c1c(Cl)cccc1C(=O)Nc1ccc(C(F)(C(F)(F)F)C(F)(F)F)cc1C` [compound 1537]: the “Insecticidal effect (Test Example 1), judged from mortality” value in assay [1] was “A (100)”. Moreover, in assay [2], the “Insecticidal effect (Test Example 2), judged from mortality” value was “A (100)”. For the same compound, in assay [3], the “Insecticidal effect (Test Example 3), judged from mortality” value was “A (100)”.

Consider `CCN(CC)C(=O)c1c(Cl)cccc1C(=O)Nc1ccc(OC(F)F)cc1C` [compound 1538], for which, in assay [1], the “Insecticidal effect (Test Example 1), judged from mortality” value was “A (100)”. For the same compound, the “Insecticidal effect (Test Example 2), judged from mortality” value in assay [2] is reported as “A (100)”. The “Insecticidal effect (Test Example 3), judged from mortality” value in assay [3] is “A (100)”.
